{"source": "paper PMC10017685", "about": "(Nature Communications, 2023)", "note": "Peptide text beside a SMILES is read from it."}
{"test_system": "Sheep red blood cells", "assay": "Hemolysis assay (HC50)", "type": "cell-based", "details": "not given", "description": "(§1) The hemolysis assay was conducted according to the procedure described previously. Sheep red blood cells (Defibrillated Sheep Blood, Graso, Poland) were used. […] Then the solution of RBCs was added to each well (100 μL with a 4% concentration of erythrocytes (v/v). The control wells for 0 and 100% hemolysis were also prepared: RBCs suspended in PBS and 1% of Triton-X 100, respectively. After that the plates were incubated for 60 min at 37 °C and then centrifuged at 800 × g for 10 min at 4 °C (Sorvall ST 16R Centrifuge, Thermo Scientific). The supernatant was carefully […] to new microtiter plates and the release of hemoglobin was measured at 590 nm (Multiskan™ GO Microplate Spectrophotometer, Thermo Scientific). Hemolysis for each concentration was calculated as the percentage of control with 100% hemolysis. All experiments were conducted in triplicate. The final values of HC50 were computed using ic50.tk tool.", "units": {"HC50": "µg/mL"}}
{"molecule": "CC[C@H](C)[C@H](NC(=O)[C@H](Cc1ccccc1)NC(=O)[C@H](CCCCN)NC(=O)[C@H](CC(N)=O)NC(=O)[C@H](CC(C)C)NC(=O)[C@H](CCC(N)=O)NC(=O)CN)C(=O)N[C@@H](CCCCN)C(=O)N[C@@H](CCCCN)C(=O)N[C@@H](C)C(=O)N[C@@H](CCC(N)=O)C(=O)N[C@@H](CCCNC(=N)N)C(=O)N[C@@H](CCCCN)C(=O)N[C@@H](Cc1ccccc1)C(=O)N[C@@H](Cc1c[nH]cn1)C(=O)N[C@@H](CCC(=O)O)C(=O)N[C@@H](CCCCN)C(=O)N[C@@H](Cc1ccccc1)C(=O)N[C@@H](C)C(=O)N[C@@H](CCCCN)C(N)=O", "note": "[GQ20] (H-GQLNKFIKKAQRKFHEKFAK-NH2)", "HC50": "> 512"}
{"molecule": "CC[C@H](C)[C@H](N)C(=O)NCC(=O)N[C@@H](CCCCN)C(=O)N[C@@H](CCC(=O)O)C(=O)N[C@@H](Cc1ccccc1)C(=O)N[C@@H](CCCCN)C(=O)N[C@@H](CCCNC(=N)N)C(=O)N[C@H](C(=O)N[C@H](C(=O)N[C@@H](CCC(=O)O)C(=O)N[C@@H](CCCNC(=N)N)C(=O)N[C@H](C(=O)N[C@@H](CCCCN)C(=O)N[C@@H](CCCNC(=N)N)C(=O)N[C@@H](Cc1ccccc1)C(=O)N[C@@H](CC(C)C)C(=O)N[C@@H](CCCNC(=N)N)C(=O)N[C@@H](CCC(=O)O)C(=O)N[C@@H](CC(C)C)C(=O)N[C@H](C(=O)N[C@@H](CCCNC(=N)N)C(=O)N1CCC[C@H]1C(=O)N[C@@H](CC(C)C)C(=O)N[C@@H](CCCNC(=N)N)C(N)=O)C(C)C)[C@@H](C)CC)C(C)C)[C@@H](C)CC", "note": "[OP-145] (H-IGKEFKRIVERIKRFLRELVRPLR-NH2)", "HC50": "> 512"}
{"molecule": "CC[C@H](C)[C@H](N)C(=O)N[C@@H](CC(C)C)C(=O)N[C@@H](CCCNC(=N)N)C(=O)N[C@@H](Cc1c[nH]c2ccccc12)C(=O)N1CCC[C@H]1C(=O)N[C@@H](Cc1c[nH]c2ccccc12)C(=O)N[C@@H](Cc1c[nH]c2ccccc12)C(=O)N1CCC[C@H]1C(=O)N[C@@H](Cc1c[nH]c2ccccc12)C(=O)N[C@@H](CCCNC(=N)N)C(=O)N[C@@H](CCCNC(=N)N)C(=O)N[C@@H](CCCCN)C(N)=O", "note": "[Omiganan] (H-ILRWPWWPWRRK-NH2)", "HC50": "> 512"}
{"molecule": "CC[C@H](C)[C@H](NC(=O)CN)C(=O)NCC(=O)N[C@@H](CCCCN)C(=O)N[C@@H](Cc1ccccc1)C(=O)N[C@@H](CC(C)C)C(=O)N[C@@H](CCCCN)C(=O)N[C@@H](CCCCN)C(=O)N[C@@H](C)C(=O)N[C@@H](CCCCN)C(=O)N[C@@H](CCCCN)C(=O)N[C@@H](Cc1ccccc1)C(=O)NCC(=O)N[C@@H](CCCCN)C(=O)N[C@@H](C)C(=O)N[C@@H](Cc1ccccc1)C(=O)N[C@H](C(=O)N[C@@H](CCCCN)C(=O)N[C@H](C(=O)N[C@@H](CC(C)C)C(=O)N[C@@H](CCCCN)C(=O)N[C@@H](CCCCN)C(N)=O)[C@@H](C)CC)C(C)C", "note": "[Pexiganan] (H-GIGKFLKKAKKFGKAFVKILKK-NH2)", "HC50": "> 512"}
{"molecule": "CC[C@H](C)[C@H](NC(=O)[C@H](CCCCN)NC(=O)[C@H](CC(N)=O)NC(=O)[C@@H](NC(=O)[C@@H](NC(=O)[C@H](CCCCN)NC(=O)[C@@H](NC(=O)[C@H](C)NC(=O)[C@@H](NC(=O)[C@H](Cc1c[nH]cn1)NC(=O)CNC(=O)[C@H](C)NC(=O)[C@H](CC(C)C)NC(=O)[C@H](CC(=O)O)NC(=O)[C@H](CCCCN)NC(=O)[C@H](C)NC(=O)[C@H](C)NC(=O)CNC(=O)[C@H](CCCCN)NC(=O)[C@H](CC(C)C)NC(=O)[C@@H](NC(=O)[C@H](CC(=O)O)NC(=O)[C@H](CC(C)C)NC(=O)[C@@H](NC(=O)CN)C(C)C)[C@@H](C)CC)C(C)C)[C@@H](C)O)C(C)C)[C@@H](C)CC)C(N)=O", "note": "[Syphaxin] (H-GVLDILKGAAKDLAGHVATKVINKI-NH2)", "HC50": "> 512"}
{"test_system": "Sheep red blood cells", "assay": "Hemolysis assay (HC50)", "type": "cell-based", "details": "red cells of sheep", "description": "as §1", "units": {"HC50": "µg/mL"}}
{"molecule": "CC[C@H](C)[C@H](NC(=O)[C@H](Cc1ccccc1)NC(=O)[C@H](CCCCN)NC(=O)[C@H](CC(N)=O)NC(=O)[C@H](CC(C)C)NC(=O)[C@H](CCC(N)=O)NC(=O)CN)C(=O)N[C@@H](CCCCN)C(=O)N[C@@H](CCCCN)C(=O)N[C@@H](C)C(=O)N[C@@H](CCC(N)=O)C(=O)N[C@@H](CCCNC(=N)N)C(=O)N[C@@H](CCCCN)C(=O)N[C@@H](Cc1ccccc1)C(=O)N[C@@H](Cc1c[nH]cn1)C(=O)N[C@@H](CCC(=O)O)C(=O)N[C@@H](CCCCN)C(=O)N[C@@H](Cc1ccccc1)C(=O)N[C@@H](C)C(=O)N[C@@H](CCCCN)C(N)=O", "note": "[GQ20] (H-GQLNKFIKKAQRKFHEKFAK-NH2)", "HC50": ">512"}
{"molecule": "CC[C@H](C)[C@H](N)C(=O)NCC(=O)N[C@@H](CCCCN)C(=O)N[C@@H](CCC(=O)O)C(=O)N[C@@H](Cc1ccccc1)C(=O)N[C@@H](CCCCN)C(=O)N[C@@H](CCCNC(=N)N)C(=O)N[C@H](C(=O)N[C@H](C(=O)N[C@@H](CCC(=O)O)C(=O)N[C@@H](CCCNC(=N)N)C(=O)N[C@H](C(=O)N[C@@H](CCCCN)C(=O)N[C@@H](CCCNC(=N)N)C(=O)N[C@@H](Cc1ccccc1)C(=O)N[C@@H](CC(C)C)C(=O)N[C@@H](CCCNC(=N)N)C(=O)N[C@@H](CCC(=O)O)C(=O)N[C@@H](CC(C)C)C(=O)N[C@H](C(=O)N[C@@H](CCCNC(=N)N)C(=O)N1CCC[C@H]1C(=O)N[C@@H](CC(C)C)C(=O)N[C@@H](CCCNC(=N)N)C(N)=O)C(C)C)[C@@H](C)CC)C(C)C)[C@@H](C)CC", "note": "[OP-145] (H-IGKEFKRIVERIKRFLRELVRPLR-NH2)", "HC50": ">512"}
{"molecule": "CC[C@H](C)[C@H](N)C(=O)N[C@@H](CC(C)C)C(=O)N[C@@H](CCCNC(=N)N)C(=O)N[C@@H](Cc1c[nH]c2ccccc12)C(=O)N1CCC[C@H]1C(=O)N[C@@H](Cc1c[nH]c2ccccc12)C(=O)N[C@@H](Cc1c[nH]c2ccccc12)C(=O)N1CCC[C@H]1C(=O)N[C@@H](Cc1c[nH]c2ccccc12)C(=O)N[C@@H](CCCNC(=N)N)C(=O)N[C@@H](CCCNC(=N)N)C(=O)N[C@@H](CCCCN)C(N)=O", "note": "[Omiganan] (H-ILRWPWWPWRRK-NH2)", "HC50": ">512"}
{"molecule": "CC[C@H](C)[C@H](NC(=O)CN)C(=O)NCC(=O)N[C@@H](CCCCN)C(=O)N[C@@H](Cc1ccccc1)C(=O)N[C@@H](CC(C)C)C(=O)N[C@@H](CCCCN)C(=O)N[C@@H](CCCCN)C(=O)N[C@@H](C)C(=O)N[C@@H](CCCCN)C(=O)N[C@@H](CCCCN)C(=O)N[C@@H](Cc1ccccc1)C(=O)NCC(=O)N[C@@H](CCCCN)C(=O)N[C@@H](C)C(=O)N[C@@H](Cc1ccccc1)C(=O)N[C@H](C(=O)N[C@@H](CCCCN)C(=O)N[C@H](C(=O)N[C@@H](CC(C)C)C(=O)N[C@@H](CCCCN)C(=O)N[C@@H](CCCCN)C(N)=O)[C@@H](C)CC)C(C)C", "note": "[Pexiganan] (H-GIGKFLKKAKKFGKAFVKILKK-NH2)", "HC50": ">512"}
{"molecule": "CC[C@H](C)[C@H](NC(=O)[C@H](CCCCN)NC(=O)[C@H](CC(N)=O)NC(=O)[C@@H](NC(=O)[C@@H](NC(=O)[C@H](CCCCN)NC(=O)[C@@H](NC(=O)[C@H](C)NC(=O)[C@@H](NC(=O)[C@H](Cc1c[nH]cn1)NC(=O)CNC(=O)[C@H](C)NC(=O)[C@H](CC(C)C)NC(=O)[C@H](CC(=O)O)NC(=O)[C@H](CCCCN)NC(=O)[C@H](C)NC(=O)[C@H](C)NC(=O)CNC(=O)[C@H](CCCCN)NC(=O)[C@H](CC(C)C)NC(=O)[C@@H](NC(=O)[C@H](CC(=O)O)NC(=O)[C@H](CC(C)C)NC(=O)[C@@H](NC(=O)CN)C(C)C)[C@@H](C)CC)C(C)C)[C@@H](C)O)C(C)C)[C@@H](C)CC)C(N)=O", "note": "[Syphaxin] (H-GVLDILKGAAKDLAGHVATKVINKI-NH2)", "HC50": ">512"}
{"test_system": "E. coli ATCC 25922", "assay": "not given", "parameters": "method as in DBAASP", "details": "origin dbaasp_ecoli; ref DBAASP; cited from earlier work"}
{"molecule": "GLLSLSLGKLL", "Class (activity against E. coli ATCC 25922 in dedicated activity dataset)": "1 (positive (active) examples are peptides selected from DBAASP with experimentally verified MIC≤ 101.5≃ 32 against E. coli ATCC 25922)"}
{"molecule": "KDRPKKPGLCPLIWWLIIKVG", "Class (activity against E. coli ATCC 25922 in dedicated activity dataset)": "1 (positive (active) examples are peptides selected from DBAASP with experimentally verified MIC≤ 101.5≃ 32 against E. coli ATCC 25922)"}
{"molecule": "KWCFRVCARGICYRRCR", "Class (activity against E. coli ATCC 25922 in dedicated activity dataset)": "1 (positive (active) examples are peptides selected from DBAASP with experimentally verified MIC≤ 101.5≃ 32 against E. coli ATCC 25922)"}
{"test_system": "human erythrocytes", "assay": "not given", "parameters": "method as in DBAASP", "details": "cited from earlier work"}
{"molecule": "VKRWKKWRWKWKKWV [DBAASP_8775]", "Class (dedicated toxicity dataset used for toxicity classifier evaluation)": 0}
{"test_system": "human erythrocytes", "assay": "not given", "parameters": "method as in DBAASP", "details": "toxicity class label 1 or 0, meaning of the labels not given; DBAASP HC50 data, human erythrocytes; ref DBAASP; cited from earlier work"}
{"molecule": "SKVWRHWRRFWHRAHRKK [DBAASP_8105]", "Class (dedicated toxicity dataset used for toxicity classifier evaluation)": 0}
{"molecule": "SKVWRHWRRFWHRAHRKL [DBAASP_14980]", "Class (dedicated toxicity dataset used for toxicity classifier evaluation)": 0}
{"molecule": "SKVWRHWRRFWHRAHRLH [DBAASP_9101]", "Class (dedicated toxicity dataset used for toxicity classifier evaluation)": 0}
{"molecule": "SYERKINRHFKTLKKNLKKK [DBAASP_13931]", "Class (dedicated toxicity dataset used for toxicity classifier evaluation)": 0}
{"molecule": "TIAMRAINNYRWRSKNQNTFLR [DBAASP_6544]", "Class (dedicated toxicity dataset used for toxicity classifier evaluation)": 1}
{"molecule": "VCKRWKKWKRKWKKWCV [DBAASP_16449]", "Class (dedicated toxicity dataset used for toxicity classifier evaluation)": 0}
{"molecule": "VKKFAWWWAFLKK [DBAASP_11303]", "Class (dedicated toxicity dataset used for toxicity classifier evaluation)": 0}
{"molecule": "VKKFAWWWPFLKK [DBAASP_11304]", "Class (dedicated toxicity dataset used for toxicity classifier evaluation)": 0}
{"molecule": "VKKFPWWWAFLKK [DBAASP_11305]", "Class (dedicated toxicity dataset used for toxicity classifier evaluation)": 0}
{"molecule": "VKKFPWWWPFLKK [DBAASP_5136]", "Class (dedicated toxicity dataset used for toxicity classifier evaluation)": 0}
{"molecule": "VKRFKKFFRKFKKFV [DBAASP_16446]", "Class (dedicated toxicity dataset used for toxicity classifier evaluation)": 0}
{"molecule": "VKRFKKFFRKFKKSV [DBAASP_8772]", "Class (dedicated toxicity dataset used for toxicity classifier evaluation)": 0}
{"molecule": "VKRFKKFFRKLKKSV [DBAASP_4328]", "Class (dedicated toxicity dataset used for toxicity classifier evaluation)": 0}
{"molecule": "VKRWKKFWRKWKKWW [DBAASP_8774]", "Class (dedicated toxicity dataset used for toxicity classifier evaluation)": 0}
{"molecule": "VKRWKKWFRKWKKWV [DBAASP_16447]", "Class (dedicated toxicity dataset used for toxicity classifier evaluation)": 0}
{"molecule": "VKRWKKWKRKWKKWV [DBAASP_16448]", "Class (dedicated toxicity dataset used for toxicity classifier evaluation)": 0}
{"molecule": "VKRWKKWWRKLKKSV [DBAASP_8773]", "Class (dedicated toxicity dataset used for toxicity classifier evaluation)": 0}
{"molecule": "VKWRWKKWRWKWKWKV [DBAASP_8776]", "Class (dedicated toxicity dataset used for toxicity classifier evaluation)": 0}
{"molecule": "VKWRWKWKWRWKWKWKV [DBAASP_8777]", "Class (dedicated toxicity dataset used for toxicity classifier evaluation)": 0}
{"molecule": "VQLRIRVAVIRA [DBAASP_7109]", "Class (dedicated toxicity dataset used for toxicity classifier evaluation)": 0}
{"molecule": "VQWRIRVAVIRK [DBAASP_7680]", "Class (dedicated toxicity dataset used for toxicity classifier evaluation)": 0}
